The test system of this assay is human polymorphonuclear phagocytes. Nature of the assay: in vitro PMN model: ROS formation triggered by fMLP, dihydrorhodamine fluorescence by flow cytometry. It counts as cell-based. On the procedure:
L-ergothioneine meeting the purity specifications defined herein was tested using in an in vitro PMN model using cells from a healthy blood donor. Minute samples of blood were exposed to L-ergothioneine (0.01-5 g/L) for 24 hours. The cells were then loaded with the dihydrorhodamine dye, which turns fluorescent upon exposure to ROS. Formation of ROS was triggered by addition of the bacterial peptide f-Met-Leu-Phe (fMLP). The samples were treated with a lysing buffer to eliminate most of the red blood cells in the samples, after which the samples were fixed in formalin. The fluorescence intensity of the PMN cells was evaluated by flow cytometry. The low fluorescence intensity of untreated control cells served as a baseline and PMN cells treated with fMLP alone served as a positive control.
The results are depicted in FIG. 1. […] The percent inhibition is shown as the average±standard deviation of sextuplicate data points for each dose of L-ergothioneine.

Here are results for one compound from patent US20240285585A1, “L-ERGOTHIONEINE AND USES THEREOF” (NANJING NUTRABUILDING BIO-TECH CO., LTD., priority 2021, published 2024).

Each structure is given as a SMILES string.

For `C[N+](C)(C)[C@@H](Cc1c[nH]c(=S)[nH]1)C(=O)[O-]` [L-ergothioneine, (2S)-3-(2-thioxo-2,3-dihydro-1H-imidazol-4-yl)-2-(trimethylammonio)-propanoate], the “ROS formation in response to the bacterial peptide fMLP” value (PMN cells from a healthy blood donor, L-ergothioneine 0.01-5 g/L for 24 hours, compared to fMLP alone) is listed as “enhanced ROS formation”. Further, the “increase in ROS formation compared to the control cultures” value (across the 0.6 g/L dose reported in human tissue, 24 hours, fMLP-triggered) is reported as “remained statistically significant”.
